The values below are quoted from earlier work in patent US7858334B2, “Degradation of hydrophobic ester pesticides and toxins” (priority 2002, dated 2010).

The structures appear in SMILES notation.

In the case of `CC1(C)C(C=C(Cl)Cl)C1C(=O)OCc1cccc(Oc2ccccc2)c1` (racemic) [permethrin, 3-phenoxybenzyl(1RS)-cis, trans-3-(2,2-dichlorovinyl)-2,2-dimethylcyclopropane carboxylate], the “published solubility in aqueous solution” value was 0.5 µM.
